Three compounds from patent publication US20250127803A1, “2'-FUCOSYLLACTOSE AND LACTO-N-NEOTETRAOSE FOR PREVENTING AND TREATING OVERWEIGHT” (HEALTH AND HAPPINESS (H&H) HONG KONG LTD, priority 2022, published 2025) can be followed below.

The subject of the test is C. elegans. Put plainly: Fat-reducing effect on C. elegans (Nile red lipid staining, fluorescence). In kind it is in vivo. The following applies: for Fat Reduction (%) vs. Control: vs NG medium; for effectiveness in reducing the lipid level relative to Orlistat as reference: specific concentrations, summary statement. How it is done:
Plates with a diameter of 100×15 mm have been filled with NGM (Nematode Growth Medium, as standard, hereafter NG medium (Fisher Scientific). Nile red (Sigma, St. Louis, MO, USA) was added to the solid surface of the NGM plates seeded at a final concentration of 0.05 μg/mL
For each of the experiments 2 NG medium plates were used, which had been supplemented with 2′-fucosyllactose in different amounts each, i.e. […] As negative control two plates with NG medium were used. As positive control two NG medium plates with Orlistat® were used.
60 synchronized worms at young adult stage were added to each plate with Escherichia coli strain OP50 as a food source and cultured under aerobic conditions at 20° C.
All worms were subjected to a lipid staining method, following the protocol previously described (Martorell et al., 2016).
All nematodes from each plate were transferred to M9 buffer and the fluorescence was measured using a FP-8300 system (JASCO Analytical Instrument, Easton, MD, USA). Fat deposition in worms was determined by one-way ANOVA test, using a Tukey's multiple comparison post-test.
Results are given as the mean±standard deviation. The statistical analyses were performed with GraphPad Prism 9 software. Statistical significance is indicated at 5%. […]

Values joined by “and” are separate entries in the source; they are usually repeats but may differ in a detail not shown here. Equal values may be shown once.

Consider 2′-fucosyllactose [2′-FL], for which the “effectiveness in reducing the lipid level relative to Orlistat as reference” value was 70-90%. Moreover, where the note is “0.01 mg/L in NG medium”, the “Fat Reduction (%) vs. Control” value was −2.38%. For the same compound, for the setting “0.1 mg/L in NG medium”, the “Fat Reduction (%) vs. Control” value is 11.37%. Further, the “Fat Reduction (%) vs. Control” value (1 mg/L in NG medium) was found to be 23.61%. The “fat reduction compared to negative control conditions (NG medium)” value (“fat reduction … (NG medium)” below) (1 mg/mL) was 23.6%. The “effectiveness relative to the positive control orlistat” value (1 mg/ml) is reported as “about 78%”. For the setting “10 mg/L in NG medium”, the “Fat Reduction (%) vs. Control” value is listed as 25.35%. Also, where the note is “10 mg/mL”, the “fat reduction … (NG medium)” value was 25.3%. In addition, where the note is “10 mg/ml”, the “effectiveness relative to the positive control orlistat” value was around 83%. In addition, under “30 mg/L in NG medium”, the “Fat Reduction (%) vs. Control” value is given as 5.28%. In addition, the “effect on fat content in nematodes” value (the lower and higher doses) was “no functional effect”.
Consider `CC(=O)N[C@H]1[C@H](O[C@H]2[C@@H](O)[C@@H](CO)O[C@@H](O[C@H]3[C@H](O)[C@@H](O)C(O)O[C@@H]3CO)[C@@H]2O)O[C@H](CO)[C@@H](O[C@@H]2O[C@H](CO)[C@H](O)[C@H](O)[C@H]2O)[C@@H]1O` (mixture of isomers) [LNnT, Lacto-N-neotetraose], for which the “effectiveness in reducing the lipid level relative to Orlistat as reference” value is 40-60%. In addition, where the note is “0.01 mg/L in NG medium”, the “Fat Reduction (%) vs. Control” value was −5.01%. For the same compound, where the note is “0.1 mg/L in NG medium”, the “Fat Reduction (%) vs. Control” value is on record as −0.08%. In addition, the “Fat Reduction (%) vs. Control” value (1 mg/L in NG medium) was found to be 3.08%. Moreover, the “Fat Reduction (%) vs. Control” value (10 mg/L in NG medium) is 14.05%. The “fat reduction … (NG medium)” value (10 mg/mL) amounted to 14.05%. For the same compound, for the setting “10 mg/ml”, the “effectiveness relative to the positive control orlistat” value is reported as “about 45%”. Besides, the “Fat Reduction (%) vs. Control” value (30 mg/L in NG medium) is listed as −2.39%.
As for `CCCCCCCCCCC[C@@H](C[C@@H]1OC(=O)[C@H]1CCCCCC)OC(=O)[C@H](CC(C)C)NC=O` [Orlistat, (25)-2-Formylamino-4-methylpentansäure-(1S)-1-{[(35,4S)-3-hexyl-2-oxo-4-oxetanyl]methyl}dodecylester, reference compound], the “Fat Reduction (%) vs. Control” value (6 μg/mL in NG medium, positive control) is 31.14% and 30.40%; the “Fat Reduction (%) vs. Control” value (6 μg/mL in NG medium, positive control, listed as Orlistate) was found to be 31.14%; the “Fat Reduction (%) vs. Control” value (6 μg/mL in NG medium, positive control, listed as orlistat) came out at 30.4%.
